Assays:
Type in all cases: cell-based
human FLS cells [1] = test: Transcriptional responses for IL-IRA and SIGIRR in human FLS cells (quantitative real-time PCR); conditions: FIG. 6; for IL-IRA transcription / SIGIRR transcription: in comparison to IL-1β alone, 2 hrs
Experimental: Additionally, transcriptional responses for IL-IRA and SIGIRR in these cell cultures were evaluated by quantitative real-time PCR after 2 hrs.

human FLS cells [2] = test: Cytokine and chemokine production in human FLS cell supernatants (BD Cytometric Bead Array)
Experimental: Tissue culture supernatants were harvested after stimulation of human FLS cells with various cytokines (as indicated) with and without IDR peptides after 24 hr. The supernatants were centrifuged at 1500×g for 7 min to obtain cell-free samples. The samples were aliquoted and stored at −20° C. until further use. Production of MMP-3 in the tissue culture supernatants was monitored using Quantikine® human MMP-3 (total) ELISA kit (Quantikine is a registered trademark of R&D Systems, Inc. Minneapolis, Minn., USA) as per the manufacturer's instructions. Production of pro-inflammatory cytokines IL-1β, IL-6, IL-10, TNF, IL-12p70 and chemokines IL-8, RANTES, MIG, MCP-1, IP-10 in the tissue culture supernatants was determined using preconfigured multiplex BD Cytometric Bead Array (CBA) human inflammation and chemokine kits respectively, employing the FACS Calibur flow cytometer (BD Biosciences, Mississauga, ON, Canada) as per the manufacture's instructions. The concentration of the cytokines or chemokines in the tissue culture supernatants was evaluated by establishing a standard curve with serial dilutions of the recombinant human cytokines or chemokines as required.
To evaluate whether IDR-1002 alone could induce inflammatory responses, human FLS cells were stimulated with IDR-1002 (100 μg/ml) for 24 hr. BD Cytometric Bead Array (CBA) preconfigured human inflammation (IL-8, IL-1β, IL-6, IL-10, TNF, IL-12p70) kit was used to evaluate protein secretion of the various analytes in the tissue culture supernatants employing FACS Calibur flow cytometer.
IL-1β-induced protein profiles (proteome) in the presence and absence of IDR-1002 were evaluated using quantitative proteomics iTRAQ® tools employing different isobaric tags. Human FLS cells were treated with IDR-1002 (100 μg/ml) for 45 min prior to IL-1β (10 ng/ml) stimulation for 24 hr. Tissue culture supernatants were monitored for protein production of MMP-3 and chemokines IL-8 and MCP-1 production, in order to evaluate the validity of the assay before processing the cell lysates for quantitative proteomic evaluation. MMP-3 production was monitored in the tissue culture supernatants by ELISA, and chemokines IL-8 and MCP-1 production were evaluated by BD preconfigured human chemokine Cytometric Bead Array.

NF-κB = test: Secreted NF-κB luciferase reporter assay in rabbit synoviocyte HIG-82 cells; conditions: IL-1β 10 ng/ml, IDR-1002 100 μg/ml, 6 hr, FIG. 3
Experimental: Rabbit synoviocyte HIG-82 cells were transiently transfected with pNFκB-MetLuc2-Reporter Vector (Clontech laboratories Inc., Mountain View, Calif., USA) or the provided control vector as per the manufacturer's instructions. Various stimulants were added to the transfected cells in culture media containing 1% (v/v) FBS. The cells were stimulated with recombinant human IL-1β in the presence and absence of IDR-1002 for 6 hr. The peptide was added either 45 min prior to, or at the time of cytokine stimulation. The activation of NF-κB was monitored by employing the Ready-To-Glow Secreted NF-κB Luciferase Reporter Assay (Clontech) as per the manufacturer's instructions.
Transcription factor NF-κB is central to the destructive effects associated with the escalation and sustenance of inflammatory responses pivotal in chronic inflammatory diseases including arthritis. Quantitative proteomics evaluation using iTRAQ® labelling pointed to the possibility that the peptide IDR-1002 altered IL-1β-induced NF-κB activation. Therefore, this study further evaluated the impact of IDR-1002 on IL-1β-induced direct activation of NF-κB in synovial fibroblasts. […] The activation of NF-κB was monitored by employing the Ready-To-Glow Secreted NF-κB Luciferase Reporter Assay (Clontech) as per the manufacturer's instructions.

VQRWLIVWRIRK (IDR-1002 peptide)
IL-IRA transcription (human FLS cells [1]; IDR-1002 alone): significantly increased | SIGIRR transcription (human FLS cells [1]; IDR-1002 alone): significantly increased | IL-IRA transcription (human FLS cells [1]; IDR-1002 plus IL-1β): significantly increased | SIGIRR transcription (human FLS cells [1]; IDR-1002 plus IL-1β): significantly increased | SIGIRR gene expression induced by IDR-1002 relative to cells stimulated with IL-1β (human FLS cells [1]; human FLS): more than 9 fold | IL-10 and IL-12p70 in supernatants by flow cytometry (human FLS cells [2]; IDR-1002 100 μg/ml alone, 24 hr): could not be detected | suppression of IL-1β-induced chemokine MCP-1 production (human FLS cells [2]; IDR-1002 100 μg/ml for 45 min prior to IL-1β 10 ng/ml, 24 hr, FIG. 2B): > 60% | suppression of IL-1β-induced chemokine IL-8 production (human FLS cells [2]; IDR-1002 100 μg/ml for 45 min prior to IL-1β 10 ng/ml, 24 hr, FIG. 2C): 20% | release of pro-inflammatory cytokines TNF-α, IL-1β or IL6 by peptide alone (human FLS cells [2]; IDR-1002 100 μg/ml, 24 hr, vs un-stimulated control cells, data not shown): did not induce | chemokine production induced by peptide by itself in FLS (human FLS cells [2]; IDR-1002 alone, human FLS): did not induce chemokine production by itself | suppression of IL-1β-induced activation of NF-κB (NF-κB): greater than 70%

Source: patent publication US20130316963A1, “INNATE DEFENCE REGULATORY PEPTIDE COMPOSITIONS FOR TREATMENT OF ARTHRITIS” (UNIVERSITY OF MANITOBA, priority 2010, published 2013)
